Experimental data from the supplement of paper PMC4862054.

Key:
Test in all cases: drug sensitivity score (DSS), CellTiter-Glo (DSS (AUC-based score)); higher = stronger drug effect (viability inhibition or cytotoxicity); extreme values may be limits of the assay
Settings in all cases: incubation time: 72 h
CAL-148 = test system: CAL-148
Procedure, shortened: (§1)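 Normalisation on every plate relied on 0.1 % DMSO and a positive kill control. The plates, 384-well format, held compound at 5 concentrations 10-fold apart across a compound-specific 10,000-fold range, and breast cancer cell lines in 20 µl suspension were incubated on them for 72 h before CellTox Green and then CellTiter-Glo readings. The drug sensitivity score derives from the area under the fitted dose-response curve.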

CAL-51 = test system: CAL-51
Procedure, shortened: as §1

MFM-223 = test system: MFM-223
Procedure, shortened: as §1

Hs578T = test system: Hs578T
Procedure, shortened: as §1

CAL-120 = test system: CAL-120
Procedure, shortened: as §1

HCC1599 = test system: HCC1599
Procedure, shortened: as §1

MDA-MB-453 = test system: MDA-MB-453
Procedure, shortened: as §1

SK-BR-3 = test system: SK-BR-3
Procedure, shortened: as §1

CAL-85-1 = test system: CAL-85-1
Procedure, shortened: as §1

MDA-MB-468 = test system: MDA-MB-468
Procedure, shortened: as §1

BT-549 = test system: BT-549
Procedure, shortened: as §1

DU-4475 = test system: DU-4475
Procedure, shortened: as §1

MDA-MB-436 = test system: MDA-MB-436
Procedure, shortened: as §1

| Compound | drug sensitivity score (CAL-148) | drug sensitivity score (CAL-51) | drug sensitivity score (MFM-223) | drug sensitivity score (Hs578T) | drug sensitivity score (CAL-120) | drug sensitivity score (HCC1599) | drug sensitivity score (MDA-MB-453) | drug sensitivity score (SK-BR-3) | drug sensitivity score (CAL-85-1) | drug sensitivity score (MDA-MB-468) | drug sensitivity score (BT-549) | drug sensitivity score (DU-4475) | drug sensitivity score (MDA-MB-436) |
| --- | --- | --- | --- | --- | --- | --- | --- | --- | --- | --- | --- | --- | --- |
| CC(C)(C)Cn1c(N)nc2ccc(-c3[nH]c(C(C)(C)C)nc3-c3ccc(F)cc3)nc21 | 0 | 0 | 1.18 | 0 | 0.0489 | 0 | 1.72 | 0.963 | 0 | 2.74 | 1.72 | 0 | 0 |
| Cn1cc(C[C@@H](N)C(=O)O)c2ccccc21 [1-methyl-D-tryptophan] | 0 | 0 | 0 | 0 | 0 | 0 | 0 | 0 | 0 | 0 | 0 | 0 | 0 |
| CC[C@H](CC#N)OC(=O)N[C@@H](C)c1cccc(NC(=O)Nc2ccc(-c3cnco3)c(OC)c2)c1 [AVN944] | 12.5 | 16.5 | 6.05 | 10.1 | 8.08 | 11.4 | 0 | 9.68 | 13.1 | 17.1 | 15.9 | 13.4 | 12.9 |
| Cc1c(N)nc([C@H](CC(N)=O)NC[C@H](N)C(N)=O)nc1C(=O)N[C@H](C(=O)N[C@H](C)[C@@H](O)[C@H](C)C(=O)N[C@H](C(=O)NCCc1nc(-c2nc(C(=O)NCCC[S+](C)C)cs2)cs1)[C@@H](C)O)[C@@H](OC1OC(CO)C(O)C(O)C1OC1OC(CO)C(O)C(OC(N)=O)C1O)c1cnc[nH]1 (stereo partly specified) [Bleomycin] | 4.27 | 16.1 | 0 | 0 | 0.67 | 0 | 0 | 2.43 | 0 | 0 | 8.65 | 0 | 4.49 |
| Cc1cc2c(F)c(Oc3ncnn4cc(OC[C@@H](C)O)c(C)c34)ccc2[nH]1 [Brivanib] | 0 | 1.49 | 0 | 0 | 0 | 0 | 0 | 0 | 0 | 0 | 0 | 0 | 0 |
| CCCCCOC(=O)Nc1nc(=O)n([C@@H]2O[C@H](C)[C@@H](O)[C@H]2O)cc1F [Capecitabine] | 0 | 0 | 0 | 0 | 0 | 0 | 0 | 0 | 0 | 0 | 0 | 0 | 0.812 |
| CC(C)C[C@H](NC(=O)[C@H](CCc1ccccc1)NC(=O)CN1CCOCC1)C(=O)N[C@@H](Cc1ccccc1)C(=O)N[C@@H](CC(C)C)C(=O)[C@@]1(C)CO1 [Carfilzomib] | 17.4 | 22.1 | 28.1 | 22.9 | 19 | 10.9 | 22.7 | 26.9 | 25.2 | 29.9 | 29.5 | 15.4 | 26.5 |
| Nc1nc(Cl)nc2c1ncn2[C@@H]1O[C@H](CO)[C@@H](O)[C@@H]1F [Clofarabine] | 8.43 | 17.6 | 0 | 1.74 | 4.58 | 9.47 | 0 | 12.7 | 10.6 | 11.7 | 14.3 | 6.22 | 16 |
| CCN(CC)CCOc1ccc(C(=C(Cl)c2ccccc2)c2ccccc2)cc1 [Clomifene] | 0 | 0 | 2.2 | 4.79 | 0 | 6.16 | 5.37 | 2.09 | 3.91 | 0 | 1.96 | 2.97 | 0 |
| C[C@@H]1C[C@H]2[C@@H]3CCC4=CC(=O)C=C[C@]4(C)[C@@]3(F)[C@@H](O)C[C@]2(C)[C@@]1(O)C(=O)CO [Dexamethasone] | 0 | 0 | 0 | 0 | 10.1 | 0 | 4 | 0 | 0 | 0 | 0 | 0 | 0 |
| CCc1cnn2c(NCc3ccc[n+]([O-])c3)cc(N3CCCC[C@H]3CCO)nc12 [Dinaciclib] | 7.54 | 20.6 | 17.8 | 18.7 | 13.6 | 19.8 | 16 | 25.1 | 25.4 | 18.3 | 19.6 | 16.6 | 20.7 |
| Cc1c(C(=O)Nc2ccc(N3C[C@@H](C)O[C@@H](C)C3)nc2)cccc1-c1ccc(OC(F)(F)F)cc1 [Erismodegib] | 0 | 4.99 | 1.41 | 0 | 0 | 0 | 0 | 0 | 0 | 1.28 | 1.37 | 0 | 2.73 |
| CC(C)C(=O)Nc1ccc([N+](=O)[O-])c(C(F)(F)F)c1 [Flutamide] | 0 | 0.0535 | 0 | 0 | 0 | 0 | 0 | 0 | 0 | 0 | 0 | 0 | 0 |
| COc1cc2c(Oc3ccc(NC(=O)C4(C(=O)Nc5ccc(F)cc5)CC4)cc3F)ccnc2cc1OCCCN1CCOCC1 [Foretinib] | 1.11 | 1.01 | 6.22 | 0 | 2.45 | 0 | 0 | 0 | 0 | 1.64 | 0 | 0 | 0.456 |
| COc1cc(Nc2ncc(F)c(Nc3ccc4c(n3)N(COP(=O)(O)O)C(=O)C(C)(C)O4)n2)cc(OC)c1OC [Fostamatinib] | 0 | 0 | 7.93 | 4.77 | 5.15 | 0 | 0 | 1.13 | 2.69 | 0 | 4.31 | 0 | 0 |
| CC(C)NC[C@@H](C(=O)N1CCN(c2ncnc3c2[C@H](C)C[C@H]3O)CC1)c1ccc(Cl)cc1 [GDC-0068] | 19.6 | 8.39 | 16.6 | 3.59 | 3.43 | 0 | 10.4 | 6.46 | 2.16 | 8.65 | 6.02 | 1.13 | 1.1 |
| CCCc1cc(C)[nH]c(=O)c1CNC(=O)c1cc(-c2ccnc(N3CCN(C)CC3)c2)cc2c1cnn2C(C)C [GSK343] | 0.724 | 0 | 2.85 | 0 | 0 | 3.37 | 6.37 | 6.24 | 1.9 | 5.85 | 1.73 | 1.22 | 1.6 |
| NC(=O)NO [Hydroxyurea] | 0 | 16.2 | 0 | 0 | 0 | 0 | 0 | 0 | 0 | 0 | 1.87 | 0 | 0 |
| COc1cc2c(cc1-c1c(C)noc1C)ncc1[nH]c(=O)n([C@H](C)c3ccccn3)c12 [I-BET151] | 0 | 3.89 | 6.13 | 9.14 | 5.1 | 0 | 7.96 | 3.27 | 8.93 | 3.38 | 8.5 | 3.45 | 0 |
| CC(C)n1nc(-c2ccc3oc(N)nc3c2)c2c(N)ncnc21 [INK128] | 14.7 | 16.5 | 15.5 | 13.8 | 14.9 | 4.56 | 14.8 | 20.3 | 14.2 | 13.5 | 15.9 | 8.44 | 11.3 |
| O=NN(CCCl)C(=O)NC1CCCCC1 [Lomustine] | 0 | 0 | 0 | 0 | 0 | 0 | 0 | 0 | 0 | 0 | 0 | 0 | 0 |
| O=C(O)CC[C@H]1CC[C@@](c2cc(F)ccc2F)(S(=O)(=O)c2ccc(Cl)cc2)CC1 [MK-0752] | 0 | 0 | 0 | 0 | 0 | 0 | 0 | 0 | 0 | 0 | 0 | 0 | 0 |
| NC1(c2ccc(-c3nc4ccn5c(=O)[nH]nc5c4cc3-c3ccccc3)cc2)CCC1 [MK-2206] | 1.35 | 0 | 1.78 | 0.281 | 0 | 0 | 5.41 | 3.43 | 0 | 0.936 | 2.74 | 0.0487 | 0 |
| NC(=O)c1cccc2cn(-c3ccc([C@@H]4CCCNC4)cc3)nc12 [MK-4827] | 0.954 | 0 | 0 | 0 | 0 | 0 | 0 | 0 | 0 | 1.06 | 0 | 2.22 | 3.73 |
| N[C@@H](Cc1ccc(N(CCCl)CCCl)cc1)C(=O)O [Melphalan] | 19.5 | 21.3 | 19.3 | 16.2 | 11.5 | 17.2 | 21.3 | 20.5 | 17.4 | 21.5 | 14.4 | 19.1 | 16.6 |
| O=C(c1cc(Cc2n[nH]c(=O)c3ccccc23)ccc1F)N1CCN(C(=O)C2CC2)CC1 [Olaparib] | 2.94 | 10.1 | 0 | 0 | 1.26 | 0 | 0 | 0 | 0 | 2.57 | 1.44 | 0 | 4.69 |
| CO[C@H](C(=O)[C@@H](O)[C@@H](C)O)[C@@H]1Cc2cc3cc(O[C@H]4C[C@@H](O[C@@H]5C[C@@H](O)[C@H](O)[C@@H](C)O5)[C@H](O)[C@@H](C)O4)c(C)c(O)c3c(O)c2C(=O)[C@H]1O[C@H]1C[C@@H](O[C@@H]2C[C@@H](O)[C@@H](O[C@@H]3C[C@](C)(O)[C@H](O)[C@@H](C)O3)[C@@H](C)O2)[C@H](O)[C@@H](C)O1 [Plicamycin] | 4.43 | 18.2 | 1.97 | 4.2 | 2.12 | 3.99 | 3.11 | 3.86 | 4.1 | 6.69 | 7.16 | 5.55 | 2.49 |
